Source: patent US10759735B2, “Bridged bicyclic compounds and their derivatives as neuroprotective agents and methods of use thereof” (Florida Atlantic University Board of Trustees, priority 2018, dated 2020)
pEC50: −log10 of the molar value. Entries after “also recorded” stand apart in the source; their conditions may differ.

Columns and labels:
Type in all cases: in vivo, Drosophila melanogaster
[1] = test system: Drosophila larval neuromuscular junction synaptic transmission; assay: neuromuscular junction (NMJ) postsynaptic transmission assay: time to synaptic failure under acute oxidative stress (2.25 mM H2O2); settings: for pEC50: Drosophila melanogaster, read-out: EC50 (half-maximal effective concentration) in protecting neurotransmission from H2O2 exposure, 2.25 mM H2O2 in HL3 saline, w1118 third instar larvae, from % maximal response of time to synaptic failure
From the text: Small molecule-mediated neuroprotection is an area of research that has important implications for several maladies such as migraine, Alzheimer's disease, and stroke. One promising method to measure the neuroprotective effects of various medicinal compounds against oxidative stress in D. melanogaster has been developed (Caplan et al. Journal of Neurophysiology, 2013, 109, 3, 649-658). In this phenotypic model, fly larvae have their synaptic transmission measured via electrical probes in the post-synaptic neuromuscular junction (NMJ). The time until synaptic failure is first measured to obtain a control. An oxidizing solution (2.25 mM of hydrogen peroxide) is then introduced to the tissue and the time to synaptic failure is again measured. Hydrogen peroxide greatly reduces the time to synaptic failure relative to the control by damaging neurons through oxidative stress. Once the time to synaptic failure has been established with hydrogen peroxide alone, then different compounds can be introduced at varying concentrations along with the hydrogen peroxide solution, and their effects on the time to synaptic failure are measured and compared to the two controls.
A series of compounds generated using the methods described herein were subjected to a neuromuscular junction (NMJ) postsynaptic transmission assay. Resveratrol was included as a neuroprotectant control. When a wash of hydrogen peroxide (2.25 mM) was introduced, the time to synaptic failure was shortened from approximately 150 min to approximately 40 min (FIG. 2). Introducing resveratrol at 25 nM restored the time to synaptic failure to approximately 150 min upon addition of hydrogen peroxide (2.25 mM).
To quantify tolerance of neurotransmission to acute oxidative stress, electrophysiological recordings from Drosophila larval preparations were conducted in a hemolymph-like 3 (HL3) saline containing 2.25 mM hydrogen peroxide (H2O2).
Wandering third instar larvae (≈110 hours old) from the fruit fly, Drosophila melanogaster, were utilized for all electrophysiological experiments described throughout this study. Larvae were reared at 25° C. on 12 h:12 h light-dark (LD) cycles in an incubator. Only w^1118 larvae were utilized in this study.
(§1) All electrophysiological experiments were performed as previously described with the exception of the resistance of the intracellular electrodes (60-90 MΩ) (Caplan et al. J. Neurophys. 109, 649-658). Excitatory junction potentials (EJPs) were elicited via repetitive stimulation (0.3 ms pulses delivered suprathreshold at a frequency of 1 Hz) and measured until synaptic failure occurred, which was characterized by an EJP amplitude of <1 mV being recorded. Electrophysiological recordings from larval preparations were conducted in hemolymph-like 3 (HL3) saline containing 2.25 mM H2O2. […] HL3 saline containing 1.5 mM Ca^2+ and 20 mM Mg^2+ was used as the recording saline throughout this study. HL3 has been utilized by other research groups to record EJPs.^20 Intracellular recordings of resting membrane potential were taken from Drosophila larval muscle 6.
All test compounds and H2O2 were applied to the Drosophila larval NMJ preparation as previously described by Caplan et al. (supra). However, the compounds utilized in the Caplan et al. work were dissolved in dimethyl sulfoxide (DMSO), whereas the compounds utilized in the present study are water-soluble at the concentrations used and thus were dissolved in ddH2O.
The statistics utilized in the vertical bar charts and line graphs were performed as previously described with the exception of the error bars being presented as mean±SEM instead of mean±SD. The EC50, or half maximal effective concentration, of each test compound was determined by plotting the logio(compound dose) against the corresponding average percentage of the maximal effectiveness, as previously described (Caplan et al. J. Neurophys. 109, 649-658).

[2] = test system: Drosophila larval muscle 6 resting membrane potential; assay: intracellular recording of resting membrane potential (RMP) during acute oxidative stress; settings: 1 nM with 2.25 mM H2O2 versus H2O2 alone
Protocol: FIGS. 8A and 8B are a pair of graphs showing that during acute oxidative stress, Drosophila larval muscle resting membrane potential (RMP) and EJP amplitude decline. […] 8B) EJP amplitude was recorded in the same larval preparations (n=5 per group). […] Data is presented as mean±SEM.
To ensure that the results obtained using compound 1 and resveratrol were not due to changes in the EJP, additional control experiments were performed, as previously described (Caplan et al. J. Neurophys. 109, 649-658). […] It was also observed that resting membrane potential (RMP) and EJP amplitude decline in larvae treated with H2O2 alone and H2O2 with 1 nM compound 1 (see FIGS. 8A. 8B).
as §1, with “HL3 has been utilized by other research groups to record EJPs.^20 Intracellular recordings of resting membrane potential were taken from Drosophila larval muscle 6.” left out

[3] = test system: excitatory junction potential (EJP) at the Drosophila NMJ; assay: control recordings of excitatory junction potential (EJP) shape and amplitude; settings: 1 nM, in the presence and absence of 2.25 mM H2O2, ten minutes after bath switch
From the text: In all panels, the curved black line represents the average EJP in hemolymph-like saline (HL3) one minute before the recording bath was replaced with HL3 containing the drug alone or the drug and H2O2. The curved gray line represents the average EJP from the same larvae ten minutes after the bath was switched from HL3 saline to HL3 containing either the drug alone or the drug and H2O2.

Compound: COc1cc(OC)cc(C2CC3C(OC(C)=O)C(C)=C(C)C2(C(=O)O)C3OC(C)=O)c1 (racemic) [compound 1, 7-(3,5-dimethoxyphenyl)-4,8-diacetoxy-2,3-dimethylbicyclo[3.2.1]oct-2-ene-1-carboxylic acid]
- time until synaptic failure restored ([1]; 0.5 nM, in the presence of hydrogen peroxide): 80%
- normal synaptic function maintained ([1]; 25 nM, H2O2 2.25 mM, wild-type fruit fly larvae): 100%
- time to synaptic failure compared to control and resveratrol-treated preparations ([1]; 0.5-5 nM dosage range, 2.25 mM H2O2, P<0.001): significantly increased time to synaptic failure
- pEC50 [1]: ~9.68
- neuroprotection in screening of initial compounds ([1]; H2O2 2.25 mM, wild-type fruit fly larvae): potent neuroprotectants
- neuroprotective effect compared to resveratrol across dosages ([1]; almost all dosages tested (0.5 nM to 25 nM)): stronger neuroprotective effects
- protection of synaptic transmission from acute oxidative stress ([1]; at a subnanomolar level): protect synaptic transmission from acute oxidative stress
- dose dependence of neuroprotective effect ([1]; dose-response, 2.25 mM H2O2): dose-dependent manner
- neuroprotective effect at lowest dose ([1]; doses as low as 500 pM, H2O2 exposure): strong neuroprotective effects
- ion channel stabilization ([1]; general statement ('appear to have'), no separate test described): ion channel stabilization effects
- toxicity ([1]; general statement, no separate test described): non-toxic
- time until synaptic failure compared to control larvae treated with 2.25 mM H2O2 only ([1]; low doses (0.5 nM and 1 nM)): significantly increased the amount of time until synaptic failure
- neuroprotective effect compared to resveratrol ([1]; similar dosage of resveratrol, P<0.001): stronger neuroprotective effects
- decline of resting membrane potential (RMP) [2]: significantly slowed the decline of RMP
- acute effect on the shape or amplitude of the EJP [3]: do not have a significant acute effect; also recorded: do not acutely affect

Compound: COc1cc(OC)cc(C2CC3C(O)C(C)=C(C)C2(C(=O)O)C3O)c1 (racemic) [compound 2, 7-(3,5-dimethoxyphenyl)-4,8-dihydroxy-2,3-dimethylbicyclo[3.2.1]oct-2-ene-1-carboxylic acid]
- pEC50 [1]: 8.52
- time to synaptic failure during H2O2 exposure compared to control preparations ([1]; higher doses, P<0.001): significantly increased time to synaptic failure
- time to failure during H2O2 exposure ([1]; low doses (0.1 nM and 0.5 nM)): did not prolong time to failure
- time to synaptic failure compared to control ([1]; only at the 5.0 nM dosage, 2.25 mM H2O2, P<0.001): similarly increased time to synaptic failure
- EC50 relative to compound 1 ([1]; ratio of EC50 values): over ten-fold higher

Compound: Oc1ccc(C=Cc2cc(O)cc(O)c2)cc1 [resveratrol, reference compound]
- time to synaptic failure ([1]; 25 nM with hydrogen peroxide 2.25 mM (H2O2 alone approx. 40 min, no H2O2 approx. 150 min)): approximately 150 min
- neuroprotectant activity from the dose curve ([1]; at the chosen dosages, unusual dose curve, EC50 not reliably determinable): does not act as a neuroprotectant
- acute effect on the shape or amplitude of the EJP [3]: do not have a significant acute effect; also recorded: do not acutely affect
